# Results from patent publication US9216173B2, “2-Pyridyl carboxamide-containing spleen tyrosine kinase (SYK) inhibitors” (Merck Sharp & Dohme Corp., priority 2011, dated 2015).
# pIC50: −log10 of the molar value.
# Target: T1, recombinant human GST-SYK (Homo sapiens, UniProt P43405)
# T1 construct: purchased Carna Biosciences 08-176
# Assay: Homogeneous Time-Resolved Fluorescence (HTRF) assay for the recombinant human Syk enzyme
# Assay type: biochemical
# Details: GST-hSYK 5 pM, ATP 25 μM, 10-dose titration 10 μM to 0.508 nM; read-out: IC50
# Method: Homogeneous Time-Resolved Fluorescence (HTRF) Assay for the Recombinant Human Syk Enzyme
# A recombinant GST-hSYK fusion protein was used to measure potency of compounds to inhibit human Syk activity. […] Final volume of the reaction was 10 μL. Phosphorylation of the peptide was allowed to proceed for 45 minutes at room temperature. To quench the reaction and detect the phosphorylated product, 2 nM of a Europium-anti-phosphotyrosine antibody (Perkin Elmer #AD0161) and 70 nM SA-APC (Perkin-Elmer #CR130-100) were added together in 15 mM Tris pH 7.5, 40 mM EDTA, 0.01% tween 20. Final volume of the quenching solution was 10 μL. The resulting HTRF signal was measured after 30 minutes on an EnVision (Perkin-Elmer) reader using a time-resolved fluorescence protocol.
row,SMILES,pIC50
1,"Cc1cc(C)nc(Nc2cc(N[C@@H](CC(C)C)C(N)=O)cnc2C(N)=O)c1 [Example 1.46, N^2-{6-carbamoyl-5-[(4,6-dimethylpyridin-2-yl)amino]pyridin-3-yl}- -leucinamide]",8.11

# Same assay, conditions: GST-hSYK 5 pM, ATP 25 μM, 10-dose titration 10 μM to 0.508 nM; read-out: rhSYK Activity (IC50 rating)
row,SMILES,pIC50
1,"CCC(CN)Nc1cnc(C(N)=O)c(Nc2cccc(-n3nccn3)n2)c1 (stereo not shown) [Example 1.85, 5-{[1-(aminomethyl)propyl]amino}-3-{[6-(2H-1,2,3-triazol-2-yl)pyridin-2-yl]amino}pyridine-2-carboxanmle]",> 8.00
2,"Cc1cc(C)nc(Nc2cc(NCC(N)C(=O)N(C)C)cnc2C(N)=O)c1 (stereo not shown) [Example 2.9, 5-{[2-amino-3-(dimethylamino)-3-oxopropyl]amino}-3-[(4,6-dimethylpyridin-2-yl)amino]pyridine-2-carboxamide]",6.00 to 7.00
3,"NCCNc1cnc(C(N)=O)c(Nc2cccc(-n3nccn3)n2)c1 [Example 1.58, 5-[(2-aminoethyl)amino]-3-{[6-(2H-1,2,3-triazol-2-yl)pyridin-2-yl]amino}pyridine-2-carboxamide]",> 8.00
4,"NC(=O)c1ncc(N[C@@H]2CCCC[C@@H]2N)cc1Nc1ccn(-c2ccccn2)n1 [Example 1.81, 5-{[(1R,2S)-2-aminocyclohexyl]amino}-3-[(1-pyridin-2-yl-1H-pyrazol-3-yl)amino]pyridine-2-carboxamide]",> 8.00
5,"NC(=O)c1ncc(N[C@@H]2CCCC[C@@H]2N)cc1Nc1ncn(-c2ccccc2)n1 [Example 1.44, 5-{[(1R,2S)-2-aminocyclohexyl]amino}-3-[(1-phenyl-1H-1,2,4-triazol-3-yl)amino]pyridine-2-carboxamide]",7.00 to 8.00
6,"Cc1cc(O)cc(Nc2cc(N[C@@H]3CCCC[C@@H]3N)cnc2C(N)=O)n1 [Example 11, 5-{[(1R,2S)-2-aminocyclohexyl]amino}-3-[(4-hydroxy-6-methylpyridin-2-yl)amino]pyridine-2-carboxamide]",7.00 to 8.00
7,"Cc1cc(C)nc(Nc2cc(N[C@H]3CCC[C@H]3N)cnc2C(N)=O)c1 (single isomer, unassigned) [Example 1.26]",> 8.00
8,"Cc1nc(Nc2cc(N[C@@H]3CCCC[C@@H]3N)cnc2C(N)=O)ccc1-c1cccc([N+](=O)[O-])c1 [Example 3.3, 5-{[(1R,2S)-2-aminocyclohexyl]amino}-3-{[6-methyl-5-(3-nitrophenyl)pyridin-2-yl]amino}pyridine-2-carboxamide]",> 8.00
9,"Cn1ncc2c(Nc3cc(N[C@@H]4CCCC[C@@H]4N)cnc3C(N)=O)nc(-c3ccccc3)nc21 [Example 1.69, 5-{[(1R,2S)-2-aminocyclohexyl]amino}-3-[(1-methyl-6-phenyl-1H-pyrazolo[3,4-d]pyrimidin-4-yl)amino]pyridine-2-carboxamide]",> 8.00
10,"Cc1cc(OCc2ccccc2)cc(Nc2cc(N[C@@H]3CCCC[C@@H]3N)cnc2C(N)=O)n1 [Example 5.3, 5-{[(1R,2S)-2-aminocyclohexyl]amino}-3-{[4-(benzyloxy)-6-methylpyridin-2-yl]amino}pyridine-2-carboxamide]",> 8.00
11,"Cc1cc(C)nc(Nc2cc(NCCN)cnc2C(N)=O)c1 [Example 1.5, 5-[(2-aminoethyl)amino]-3-[(4,6-dimethylpyridin-2-yl)amino]pyridine-2-carboxamide]",> 8.00
12,"Cc1nc(Nc2cc(N[C@@H]3CCCC[C@@H]3N)cnc2C(N)=O)ccc1-c1cccc2c1CNC2=O [Example 3.12, 5-{[(1R,2S)-2-aminocyclohexyl]amino}-3-{[6-methyl-5-(1-oxo-2,3-dihydro-1H-isoindol-4-yl)pyridin-2-yl]amino}pyridine-2-carboxamide]",> 8.00
13,"CCc1cccc(Nc2cc(NC[C@H](C)N)cnc2C(N)=O)n1 [Example 1.94, 5-{[(2S)-2-aminopropyl]amino}-3-[(6-ethylpyridin-2-yl)amino]pyridine-2-carboxamide]",> 8.00
14,"Cc1cc(C)nc(Nc2cc(NCC(N)C(F)F)cnc2C(N)=O)c1 (stereo not shown) [Example 2.4, 5-[(2-amino-3,3-difluoropropyl)amino]-3-[(4,6-dimethylpyridin-2-yl)amino]pyridine-2-carboxamide]",7.00 to 8.00
15,"NC(=O)c1ncc(N[C@@H]2CCCC[C@@H]2N)cc1Nc1ccnc(-n2nccn2)n1 [Example 1.122, 5-{[(1R,2S)-2-aminocyclohexyl]amino}-3-{[2-(2H-1,2,3-triazol-2-yl)pyrimidin-4-yl]amino}pyridine-2-carboxamide]",> 8.00
16,"Cc1nc(Nc2cc(N[C@@H]3CCCC[C@@H]3N)cnc2C(N)=O)ccc1-c1cccc(N2CCN(C)CC2)c1 [Example 3.14, 5-{[(1R,2S)-2-aminocyclohexyl]amino}-3-({6-methyl-5-[3-(4-methylpiperazin-1-yl)phenyl]pyridin-2-yl}amino)pyridine-2-carboxamide]",> 8.00
17,"Cc1cc(C)nc(Nc2cc(NC(C)(C)CN)cnc2C(N)=O)c1 [Example 1.19, 5-[(2-amino-1,1-dimethylethyl)amino]-3-[(4,6-dimethylpyridin-2-yl)amino]pyridine-2-carboxamide]",7.00 to 8.00

row,SMILES,pIC50
1,"Cc1cc(C)nc(Nc2cc(N[C@@H](CC(C)C)C(N)=O)cnc2C(N)=O)c1 [Example 1.45, N^2-{6-carbamoyl-5-[(4,6-dimethylpyridin-2-yl)amino]pyridin-3-yl}- -leucinamide]",> 8.00
2,"NC(=O)c1ncc(N[C@@H]2CCCC[C@@H]2N)cc1Nc1cccc(CN2CCOCC2)n1 [Example 1.60, 5-{[(1R,2S)-2-aminocyclohexyl]amino}-3-{[6-(morpholin-4-ylmethyl)pyridin-2-yl]amino}pyridine-2-carboxamide]",6.00 to 7.00
3,"NC(=O)c1ncc(NCC2(N)CC2)cc1Nc1cccc(C(F)(F)F)n1 [Example 1.103, 5-{[(1-aminocyclopropyl)methyl]amino}-3-{[6-(trifluoromethyl)pyridin-2-yl]amino}pyridine-2-carboxamide]",> 8.00
4,"Cc1cc(C)nc(Nc2cc(NC[C@H](C)N)cnc2C(N)=O)c1 [Example 1.3, 5-{[(2S)-2-aminopropyl]amino}-3-[(4,6-dimethylpyridin-2-yl)amino]pyridine-2-carboxamide]",> 8.00
5,"CCc1cccc(Nc2cc(NC(CC)CN)cnc2C(N)=O)n1 (stereo not shown) [Example 1.97, 5-{[1-(aminomethyl)propyl]amino}-3-[(6-ethylpyridin-2-yl)amino]pyridine-2-carboxamide]",> 8.00
6,"Cc1cc(C)nc(Nc2cc(N[C@@H]3[C@H](N)CCCC3(F)F)cnc2C(N)=O)c1 [Example 2.5, 5-{[(1R,6R)-6-amino-2,2-difluorocyclohexyl]amino}-3-[(4,6-dimethylpyridin-2-yl)amino]pyridine-2-carboxamide]",> 8.00
7,"Cc1cc(C)nc(Nc2cc(NC3CCNCC3)cnc2C(N)=O)c1 [Example 2.10, 3-[(4,6-dimethylpyridin-2-yl)amino]-5-(piperidin-4-ylamino)pyridine-2-carboxamide]",6.00 to 7.00
8,"NC(=O)c1ncc(N[C@@H]2CCCC[C@@H]2N)cc1Nc1ccn(Cc2ccccc2)n1 [Example 1.50, 5-{[(1R,2S)-2-aminocyclohexyl]amino}-3-[(1-benzyl-1H-pyrazol-3-yl)amino]pyridine-2-carboxamide]",7.00 to 8.00
9,"NC(=O)c1ncc(N[C@@H]2CCCC[C@@H]2N)cc1Nc1cccc(N2CCOCC2)n1 [Example 1.57, 5-{[(1R,2S)-2-aminocyclohexyl]amino}-3-[(6-morpholin-4-ylpyridin-2-yl)amino]pyridine-2-carboxamide]",> 8.00
10,"Cc1nc(Nc2cc(N[C@@H]3CCCC[C@@H]3N)cnc2C(N)=O)ccc1-c1cccc(C(O)C(F)(F)F)c1 (stereo partly drawn) [Example 3.11, 5-{[(1R,2S)-2-aminocyclohexyl]amino}-3-({6-methyl-5-[3-(2,2,2-trifluoro-1-hydroxyethyl)phenyl]pyridin-2-yl}amino)pyridine-2-carboxamide]",> 8.00
11,"Cc1nc(Nc2cc(N[C@@H]3CCCC[C@@H]3N)cnc2C(N)=O)ccc1-c1ccc(C(=O)O)cc1 [Example 3.5, 4-{6-[(5-{[(1R,2S)-2-aminocyclohexyl]amino}-2-carbamoylpyridin-3-yl)amino]-2-methylpyridin-3-yl}benzoic acid]",> 8.00
12,"Cc1cc2ccsc2c(Nc2cc(N[C@@H]3CCCC[C@@H]3N)cnc2C(N)=O)n1 [Example 1.107, 5-{[(1R,2S)-2-aminocyclohexyl]amino}-3-[(5-methylthieno[2,3-c]pyridin-7-yl)amino]pyridine-2-carboxamide]",> 8.00
13,"CCc1cccc(Nc2cc(N[C@H]3[C@@H](N)CCCC3(F)F)cnc2C(N)=O)n1 [Example 1.88, 5-{[(1S,6S)-6-amino-2,2-difluorocyclohexyl]amino}-3-[(6-ethylpyridin-2-yl)amino]pyridine-2-carboxamide]",> 8.00
14,"COC[C@H](N)CNc1cnc(C(N)=O)c(Nc2cccc(C(F)(F)F)n2)c1 [Example 1.105, 5-{[(2R)-2-amino-3-methoxypropyl]amino}-3-{[6-(trifluoromethyl)pyridin-2-yl]amino}pyridine-2-carboxamide]",> 8.00
15,"Cc1nc(Nc2cc(N[C@@H]3CCCC[C@@H]3N)cnc2C(N)=O)ccc1-c1ccc2nnn(C)c2c1 [Example 3.9, 5-{[(1R,2S)-2-aminocyclohexyl]amino}-3-{[6-methyl-5-(1-methyl-1H-benzotriazol-6-yl)pyridin-2-yl]amino}pyridine-2-carboxamide]",> 8.00
16,"Cc1nc(Nc2cc(N[C@@H]3CCCC[C@@H]3N)cnc2C(N)=O)ccc1-c1cccc(N(C)S(C)(=O)=O)c1 [Example 3.19, 5-{[(1R,2S)-2-aminocyclohexyl]amino}-3-[(6-methyl-5-{3-[methyl(methylsulfonyl)amino]phenyl}pyridin-2-yl)amino]pyridine-2-carboxamide]",> 8.00
